Assay results: PubChem BioAssay AID248 (DTP/NCI, 2004)
Toxic doses and inconclusive results are not listed. Cut-off read from the data, not from the text of the source: active = T/C of 150% or more; inactive = T/C below 125%.

Tested on: L1210 leukemia ip in BDF1 mice, survival T/C
Assay: NCI In Vivo Anticancer Drug Screen. Data for tumor model L1210 Leukemia (intraperitoneal) in B6D2F1 (BDF1) mice
Details: endpoint: mean survival time, higher = longer survival
How it was run: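 Survival endpoint. Drug-treated group vs vehicle group, expressed as T divided by C. Tumor passaged by transplantation.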

[1] = dose: 100.0 mg/kg/injection, schedule: Q01DX009 (ip), vehicle: Klucel (hydroxypropylcellulose) (HPC)
[2] = dose: 200.0 mg/kg/injection, schedule: Q01DX009 (ip), vehicle: Klucel (hydroxypropylcellulose) (HPC)
[3] = dose: 400.0 mg/kg/injection, schedule: Q01DX009 (ip), vehicle: Klucel (hydroxypropylcellulose) (HPC)
[4] = dose: 50.0 mg/kg/injection, schedule: Q01DX001 (ip), vehicle: carboxymethylcellulose (CMC)
[5] = dose: 100.0 mg/kg/injection, schedule: Q01DX001 (ip), vehicle: carboxymethylcellulose (CMC)
[6] = dose: 200.0 mg/kg/injection, schedule: Q01DX001 (ip), vehicle: carboxymethylcellulose (CMC)
[7] = dose: 400.0 mg/kg/injection, schedule: Q01DX001 (ip), vehicle: carboxymethylcellulose (CMC)
[8] = dose: 100.0 mg/kg/injection, schedule: Q04DX003 (ip), vehicle: saline
[9] = dose: 200.0 mg/kg/injection, schedule: Q04DX003 (ip), vehicle: saline
[10] = dose: 400.0 mg/kg/injection, schedule: Q04DX003 (ip), vehicle: saline
[11] = dose: 100.0 mg/kg/injection, schedule: Q04DX003 (ip), vehicle: saline with Tween-80
[12] = dose: 200.0 mg/kg/injection, schedule: Q04DX003 (ip), vehicle: saline with Tween-80
[13] = dose: 400.0 mg/kg/injection, schedule: Q04DX003 (ip), vehicle: saline with Tween-80
[14] = dose: 50.0 mg/kg/injection, schedule: Q01DX009 (ip), vehicle: saline
[15] = dose: 100.0 mg/kg/injection, schedule: Q01DX009 (ip), vehicle: saline
[16] = dose: 200.0 mg/kg/injection, schedule: Q01DX009 (ip), vehicle: saline
[17] = dose: 100.0 mg/kg/injection, schedule: Q01DX001 (ip), vehicle: saline
[18] = dose: 100.0 mg/kg/injection, schedule: Q01DX009 (ip), vehicle: saline with Tween-80
[19] = dose: 100.0 mg/kg/injection, schedule: Q04DX002 (ip), vehicle: Klucel (hydroxypropylcellulose) (HPC)
[20] = dose: 200.0 mg/kg/injection, schedule: Q01DX009 (ip), vehicle: saline with Tween-80
[21] = dose: 200.0 mg/kg/injection, schedule: Q04DX002 (ip), vehicle: Klucel (hydroxypropylcellulose) (HPC)
[22] = dose: 400.0 mg/kg/injection, schedule: Q01DX009 (ip), vehicle: saline with Tween-80
[23] = dose: 400.0 mg/kg/injection, schedule: Q04DX002 (ip), vehicle: Klucel (hydroxypropylcellulose) (HPC)

Measured: T/C

O=C1OCCN1/N=C\c1ccccc1
inactive: dose: 100.0 mg/kg/injection, schedule: Q01DX009 (ip), vehicle: other 116 % of control | dose: 200.0 mg/kg/injection, schedule: Q01DX009 (ip), vehicle: other 98 % of control | dose: 400.0 mg/kg/injection, schedule: Q01DX009 (ip), vehicle: other 97 % of control

O=C(CNC(=O)Nc1ccc(Cl)c(Cl)c1)NNC(=O)Nc1ccc(Cl)c([N+](=O)[O-])c1
inactive: [1] 97 % of control | [2] 97 % of control | [3] 93 % of control

N#Cc1ccccc1NC(=O)N(CCCl)N=O
inactive: dose: 2.0 mg/kg/injection, schedule: Q01DX001 (ip), vehicle: carboxymethylcellulose (CMC) 119 % of control | dose: 13.0 mg/kg/injection, schedule: Q01DX009 (ip), vehicle: carboxymethylcellulose (CMC) 124 % of control | dose: 13.3 mg/kg/injection, schedule: Q01DX001 (ip), vehicle: carboxymethylcellulose (CMC) 120 % of control | dose: 20.0 mg/kg/injection, schedule: Q01DX009 (ip), vehicle: carboxymethylcellulose (CMC) 105 % of control | dose: 30.0 mg/kg/injection, schedule: Q01DX009 (ip), vehicle: carboxymethylcellulose (CMC) 108 % of control

Fc1ccccc1N=C=S
inactive: dose: 75.0 mg/kg/injection, schedule: Q01DX001 (ip), vehicle: other 104 % of control | dose: 150.0 mg/kg/injection, schedule: Q01DX001 (ip), vehicle: other 93 % of control

O=C(Nc1ccc(C(F)(F)F)cc1)Nc1cccc(Cl)c1
inactive: [4] 98 % of control | [5] 101 % of control | [6] 93 % of control | [7] 95 % of control

c1ccc2c(c1)Sc1ccccc1N2C[C@H]1CCCN2CCCC[C@H]12
inactive: dose: 75.0 mg/kg/injection, schedule: Q01DX009 (ip), vehicle: Klucel (hydroxypropylcellulose) (HPC) 102 % of control | dose: 75.0 mg/kg/injection, schedule: Q04DX003 (ip), vehicle: Klucel (hydroxypropylcellulose) (HPC) 102 % of control | dose: 150.0 mg/kg/injection, schedule: Q01DX009 (ip), vehicle: Klucel (hydroxypropylcellulose) (HPC) 91 % of control | dose: 150.0 mg/kg/injection, schedule: Q04DX003 (ip), vehicle: Klucel (hydroxypropylcellulose) (HPC) 97 % of control | dose: 300.0 mg/kg/injection, schedule: Q01DX009 (ip), vehicle: Klucel (hydroxypropylcellulose) (HPC) 89 % of control | dose: 300.0 mg/kg/injection, schedule: Q04DX003 (ip), vehicle: Klucel (hydroxypropylcellulose) (HPC) 102 % of control

CC(C)CN1CCCC(=O)C(O)CCC1 (stereo unspecified)
inactive: dose: 100.0 mg/kg/injection, schedule: Q01DX001 (ip), vehicle: acetone 101 % of control

O=C(O)Cc1ccc2ccccc2c1Br
inactive: [8] 97 % of control | [9] 95 % of control | [10] 90 % of control

O=C1/C(=C/c2ccccc2[N+](=O)[O-])Cc2ccccc21
inactive: dose: 50.0 mg/kg/injection, schedule: Q01DX009 (ip), vehicle: Klucel (hydroxypropylcellulose) (HPC) 107 % of control | [1] 94 % of control | [2] 93 % of control

O=C(Nc1ccc(F)cc1)OCCOc1ccc(Cl)cc1Cl
inactive: [1] 105 % of control | [2] 110 % of control | [3] 109 % of control

O=C(O)c1ccccc1-c1ccccc1C(=O)Nc1ccc2c(c1)C(=O)c1ccccc1-2
inactive: [11] 104 % of control | [12] 101 % of control | [13] 98 % of control

C=CCNCC1OC(OC)C2OC(C)(C)OC12 (stereo unspecified)
inactive: [14] 101 % of control | [15] 104 % of control | [8] 109 % of control | [16] 104 % of control | [9] 102 % of control

N#CSCCSC#N
inactive: dose: 10.0 mg/kg/injection, schedule: Q04DX003 (ip), vehicle: Klucel (hydroxypropylcellulose) (HPC) 99 % of control

COc1cc2c(cc1OC)C1(CCCl)C3CC4C(=CCOC5CC(=O)N2C1C54)CN3C(=O)Cc1ccccc1 (stereo unspecified)
inactive: dose: 75.0 mg/kg/injection, schedule: Q01DX001 (ip), vehicle: saline 100 % of control

OC1CC23C=CC2(C1)C1(CC3)OCCO1 (stereo unspecified)
inactive: dose: 50.0 mg/kg/injection, schedule: Q04DX002 (ip), vehicle: saline with Tween-80 92 % of control | dose: 100.0 mg/kg/injection, schedule: Q04DX002 (ip), vehicle: saline with Tween-80 92 % of control | dose: 200.0 mg/kg/injection, schedule: Q04DX002 (ip), vehicle: saline with Tween-80 95 % of control | dose: 400.0 mg/kg/injection, schedule: Q04DX002 (ip), vehicle: saline with Tween-80 98 % of control

CO[N+](=O)c1cc(C(C)(C)C)c([O-])c(C(C)(C)C)c1
inactive: dose: 100.0 mg/kg/injection, schedule: Q01DX001 (ip), vehicle: Klucel (hydroxypropylcellulose) (HPC) 88 % of control | dose: 200.0 mg/kg/injection, schedule: Q01DX001 (ip), vehicle: Klucel (hydroxypropylcellulose) (HPC) 88 % of control | dose: 400.0 mg/kg/injection, schedule: Q01DX001 (ip), vehicle: Klucel (hydroxypropylcellulose) (HPC) 92 % of control

O=C(C[n+]1ccccc1)c1ccc(Br)cc1
inactive: [14] 101 % of control | [17] 101 % of control | [15] 105 % of control

COC(OC)c1[nH]c(=S)[nH]c(=O)c1C
inactive: [11] 107 % of control | [12] 105 % of control | [13] 105 % of control

Cc1cc([N+](=O)[O-])cc(Br)c1N
inactive: [12] 93 % of control | [13] 91 % of control

COc1ccc(C(O)c2nnc(C(O)c3ccc(OC)cc3)nn2)cc1 (stereo unspecified)
inactive: [18] 96 % of control | [19] 103 % of control | [20] 96 % of control | [21] 90 % of control | [22] 86 % of control | [23] 100 % of control

Nc1cccc2cc3ccccc3[n+]([O-])c12
inactive: [18] 103 % of control | [20] 103 % of control | [22] 93 % of control

CC(=O)Oc1ccc([N+](=O)[O-])cc1OC(C)=O
inactive: dose: 75.0 mg/kg/injection, schedule: Q01DX001 (ip), vehicle: water 92 % of control | dose: 150.0 mg/kg/injection, schedule: Q01DX001 (ip), vehicle: water 92 % of control | dose: 300.0 mg/kg/injection, schedule: Q01DX001 (ip), vehicle: water 95 % of control

O=C(O)/C=C\C(=O)Nc1ccccc1[N+](=O)[O-]
inactive: [19] 90 % of control | [21] 114 % of control | [23] 104 % of control

CCOC(=O)C1CCC1C(=O)OCC (stereo unspecified)
inactive: [14] 95 % of control | [15] 95 % of control | [8] 96 % of control | [16] 94 % of control | [9] 102 % of control | [10] 102 % of control

CC1(C)CC(O)CC(O)C1 (stereo unspecified)
inactive: [4] 104 % of control | dose: 50.0 mg/kg/injection, schedule: Q01DX001 (ip), vehicle: saline 98 % of control | [5] 101 % of control | [17] 120 % of control | [6] 106 % of control | dose: 200.0 mg/kg/injection, schedule: Q01DX001 (ip), vehicle: saline 104 % of control | [7] 98 % of control | dose: 400.0 mg/kg/injection, schedule: Q01DX001 (ip), vehicle: saline 95 % of control

COc1cc(C(=O)O)c(O)c(OC)c1OC
inactive: [1] 96 % of control | dose: 100.0 mg/kg/injection, schedule: Q04DX003 (ip), vehicle: Klucel (hydroxypropylcellulose) (HPC) 98 % of control | [2] 106 % of control | dose: 200.0 mg/kg/injection, schedule: Q04DX003 (ip), vehicle: Klucel (hydroxypropylcellulose) (HPC) 101 % of control | [3] 101 % of control | dose: 400.0 mg/kg/injection, schedule: Q04DX003 (ip), vehicle: Klucel (hydroxypropylcellulose) (HPC) 104 % of control

COc1ccc(N=Nc2sc(N)nc2-c2ccc(Cl)cc2)cc1
inactive: dose: 12.5 mg/kg/injection, schedule: Q01DX001 (ip), vehicle: saline with Tween-80 93 % of control | dose: 25.0 mg/kg/injection, schedule: Q01DX001 (ip), vehicle: saline with Tween-80 90 % of control | dose: 50.0 mg/kg/injection, schedule: Q01DX001 (ip), vehicle: saline with Tween-80 101 % of control
